Laboratory results as given in US10227373B2 (priority 2014, dated 2019).
Where “and” joins values, the source holds several entries; their conditions need not be identical. Identical values can stand only once. Like-named read-outs stand apart in the source and are kept apart here. Marks after values point to notes of the source that are not given here.

What was measured:
HBV = assay: microbe, parasite or virus in culture; assay type: cell-based, hepatitis B virus
Vaccinia [1] = assay: microbe, parasite or virus in culture; assay type: cell-based, vaccinia virus
HCMV = assay: microbe, parasite or virus in culture; assay type: cell-based, human cytomegalovirus; conditions: Human betaherpesvirus 5, HFF
NOV = assay: microbe, parasite or virus in culture; assay type: cell-based; conditions: Norovirus, HG23
Dengue [2] = assay: microbe, parasite or virus in culture; assay type: cell-based
Measles = assay: microbe, parasite or virus in culture; assay type: cell-based; conditions: Measles morbillivirus, Vero 76
Ebola (Zaire) = assay: microbe, parasite or virus in culture; assay type: cell-based; conditions: Zaire ebolavirus, Vero
in vitro [3] = conditions: human
in vitro [4] = conditions: human; remark: listed apart in the source
in vitro [5] = conditions: African green monkey
Dengue [6] = test system: Dengue
Vaccinia [7] = test system: Vaccinia
Ebola virus [8] = test system: Ebola virus
in vitro [9] = conditions: human; remark: listed apart in the source
Ebola virus [10] = assay: microbe, parasite or virus in culture; conditions: Zaire ebolavirus, read-out: EC50 (IC50)
in vitro [11] = conditions: human; remark: listed apart in the source
[12] = molecular target: S-adenosylhomocysteine hydrolase (SAHase) (Oryctolagus cuniculus, UniProt A0A5F9DS62); assay: SAHase inhibition (release of free homocysteine); assay type: biochemical; conditions: SAHase from rabbit erythrocytes; read-out: IC50 versus SAHase
measles virus = assay: microbe, parasite or virus in culture; assay type: cell-based; conditions: Measles morbillivirus, Vero 76, read-out: drug concentration to reduce viral replication (EC50)

S-adenosylhomocysteine hydrolase (SAHase), sequence (A0A5F9DS62 1-428): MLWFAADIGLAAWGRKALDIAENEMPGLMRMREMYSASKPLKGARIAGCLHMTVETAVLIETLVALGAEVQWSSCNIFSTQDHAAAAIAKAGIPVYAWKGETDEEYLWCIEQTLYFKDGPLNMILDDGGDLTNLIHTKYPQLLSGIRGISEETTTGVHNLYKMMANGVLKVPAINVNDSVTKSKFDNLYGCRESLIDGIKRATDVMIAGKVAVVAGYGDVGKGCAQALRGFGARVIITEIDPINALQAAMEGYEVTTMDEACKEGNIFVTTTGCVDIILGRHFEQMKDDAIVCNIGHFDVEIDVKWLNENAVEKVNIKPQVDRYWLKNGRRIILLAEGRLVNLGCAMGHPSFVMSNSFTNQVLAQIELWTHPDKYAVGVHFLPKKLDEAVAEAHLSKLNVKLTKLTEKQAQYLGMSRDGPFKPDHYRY

In the case of `Nc1ncnc2c1ncn2C1=C[C@@H](CO)[C@H](O)[C@@H]1O` [“L”-Isoneplanocin, (1S,2R,5S)-3-(6-Amino-9H-purin-9-yl)-5-(hydroxymethyl)cyclopent-3-ene-1,2-diol], the Antiviral activity (HBV) is reported as “inactive”, the Antiviral activity (Vaccinia [1]) is reported as “inactive” and the EC50 (HCMV) is reported as 3.7 µM. The EC90 (HCMV) was 6.86 µM, the EC50 (NOV) was 11 µM and the EC90 (NOV) was 89 µM. The EC50 (Dengue [2]) was 5.7 µM, the EC50 (Dengue [2]; Dengue virus, Vero 76) was 6.1 µM and the EC50 (Measles) was 0.72 µM. It also gave an EC50 (Ebola (Zaire)) of 0.76 µM, a CC50 (in vitro [3]) greater than 300 µM and a CC50 (in vitro [4]) greater than 300 µM. It also gave a CC50 (in vitro [5]) of 11.4 µM.
With `Nc1ncc(Br)c2c1ncn2[C@@H]1C[C@H](CO)[C@@H](O)[C@H]1O` [3-Bromo-3-deazaaristeromycin] the “SI (CC50/EC50)” value (Rift Valley Fever) was 5, the “SI (CC50/EC50)” value (Tacaribe) was 7.9 and the “SI (CC50/EC50)” value (Dengue [6]) was 2. The “SI (CC50/EC50)” value (Vaccinia [7]) was greater than 1.3, the EC50 (Flu A (H1N1)) was greater than 290 µM and the “SI (CC50/EC50)” value (Flu A (H1N1)) was 0. The EC50 (Flu A (H3N2)) was greater than 290 µM, the “SI (CC50/EC50)” value (Flu A (H3N2)) was 0 and the EC50 (Flu A (H5N1)) was 1.14 µM. The “SI (CC50/EC50)” value (Flu A (H5N1)) was greater than 260, the EC50 (Influenza B) was 0.84 µM and the “SI (CC50/EC50)” value (Influenza B) was greater than 340. It also gave a CC50 (MDCK cells) greater than 290 µM.
For `Nc1nccc2c1ncn2C1=C[C@@H](CO)[C@H](O)[C@@H]1O` [“L”-3-Deazaisoneplanocin, L-1′,6′-iso-3-deazaneplanocin], the CC50/EC50 (Ebola virus [8]) was greater than 313 µM, the “EC90 (IC90; concentration inhibiting viral replication by 90%)” value (Ebola virus [8]) was less than 0.32 µM and the CC50 (in vitro [9]) was greater than 100 µM. For the same compound, the EC50 (Ebola virus [10]) was less than 0.32 µM.
`Nc1ncnc2c1ncn2C1=C[C@H](CO)[C@@H](O)[C@H]1O` [“D”-Isoneplanocin, (1R,2S,5R)-3-(6-Amino-9H-purin-9-yl)-5-(hydroxymethyl)cyclopent-3-ene-1,2-diol] gave an EC50 (HBV; Hepatitis B virus) of 7.2 µM, an EC90 (HBV; Hepatitis B virus) of 35 µM and an EC50 (Vaccinia [1]; Orthopoxvirus vaccinia, HFF) of 10.1 µM. It also gave an EC90 (Vaccinia [1]; Orthopoxvirus vaccinia, HFF) greater than 300 µM, an EC50 (HCMV) of 0.11 µM and an EC90 (HCMV) greater than 12 µM. For the same compound, the EC50 (NOV) was 0.784 µM, the EC90 (NOV) was 8.88 µM and the EC50 (Dengue [2]) was 1.5 µM. For the same compound, the EC50 (Dengue [2]; Dengue virus, Vero 76) was 1.1 µM, the EC50 (Measles) was less than 0.38 µM and the EC50 (Ebola (Zaire)) was 0.38 µM. For the same compound, the CC50 (in vitro [11]) was greater than 100 µM, the CC50 (in vitro [4]) was greater than 100 µM and the CC50 (in vitro [5]) was 1.3 µM.
In the case of `Nc1ncc(Br)c2c1ncn2[C@@H]1C=C(CO)[C@@H](O)[C@H]1O` [3-Bromo-3-deazaneplanocin], the IC50 [12] is reported as 0.0027 µM, the “MCC (minimum concentration causing microscopically detectable alteration of normal cell morphology)” value (Vero cells) is reported as >100^d and the CC50/EC50 (Marburg) is reported as 1100. For the same compound, the EC50 (Marburg) was 0.009 µM, the CC50/EC50 (Ebola) was 3 and the EC50 (Ebola) was 3.3 µM. The “SI (CC50/EC50)” value (Rift Valley Fever) was 250, the “SI (CC50/EC50)” value (Punta Toro) was 140 and the “SI (CC50/EC50)” value (Tacaribe) was greater than 2000. The “SI (CC50/EC50)” value (Pichinde) was 24, the “SI (CC50/EC50)” value (Junin) was 160 and the “SI (CC50/EC50)” value (Dengue [6]) was 57. The “SI (CC50/EC50)” value (Epstein Barr) was less than 4.3, the “SI (CC50/EC50)” value (Feline herpes) was 470 and the EC50 (Flu A (H1N1)) was less than 0.094 µM. The “SI (CC50/EC50)” value (Flu A (H1N1)) was greater than 2345, the EC50 (Flu A (H3N2)) was 1.55 µM and the “SI (CC50/EC50)” value (Flu A (H3N2)) was greater than 190. For the same compound, the EC50 (Flu A (H5N1)) was 0.94 µM, the “SI (CC50/EC50)” value (Flu A (H5N1)) was greater than 310 and the EC50 (Influenza B) was greater than 0.16 µM. For the same compound, the “SI (CC50/EC50)” value (Influenza B) was less than 7, the CC50 (Akata cells) was 0.13^b and the CC50 (CRFK cells) was 94^b.
For `Nc1nccc2c1ncn2C1=C[C@H](CO)[C@@H](O)[C@H]1O` [“D”-3-Deazaisoneplanocin, D-1′,6′-iso-3-deazaneplanocin], the EC50 (measles virus) was less than 0.1 µg/mL, the CC50/EC50 (Ebola virus [8]) was greater than 313 µM and the “EC90 (IC90; concentration inhibiting viral replication by 90%)” value (Ebola virus [8]) was 74.1 µM. For the same compound, the CC50 (in vitro [9]) was greater than 100 µM and the EC50 (Ebola virus [10]) was less than 0.32 µM.
For `Nc1nccc2c1ncn2[C@@H]1C[C@@H](CO)[C@H](O)[C@@H]1O` [carbocyclic 3-deazaadenosine, reference compound], the “EC90 (IC90; concentration inhibiting viral replication by 90%)” value (Ebola virus [8]) was > 126.5 µM and 240.3 µM.
